We go through two compounds from US20160257927A1, “THREE-DIMENSIONAL CELL CULTURE USING NANOFIBER SLURRIES AND NANO-STRUCTURED SUBSTRATES” (UCL BUSINESS PLC, priority 2015, published 2016).

This assay deals with Lung cancer A549 cells. The assay can be described thus: Chemosensitivity to anticancer drugs in 2D TCP and 3D scaffold (MTS CellTiter 96 cell viability). Type of assay: cell-based, human. The following applies: 48 hrs treatment; 2D TCP vs 3D CA/Rayon, 1:9 scaffold; 25000 cells seeded. As for the experimental part:
FIG. 18. Chemosensitivity of cancer cell lines in response to 48 hrs treatment with anticancer drugs when cultured in 2D Tissue Culture Plates (TCP) and 3D CA/Rayon, 1:9 scaffold.
25000 cells of tested cell lines were seeded in 2D TCP and 3D scaffold. Cells were treated with anticancer drugs for 48 hrs and then cell viability was measured using MTS CellTiter 96® Aqueous One Solution assay (Promega).

For the compound `COc1cccc2c1C(=O)c1c(O)c3c(c(O)c1C2=O)C[C@@](O)(C(=O)CO)C[C@@H]3O[C@H]1C[C@H](N)[C@H](O)[C@H](C)O1` [doxorubicin], the “chemosensitivity (cell viability) of A549 cells” value is “more sensitive to 5-fluorouracil and doxorubicin in 2D TCP than in 3D scaffolds”.

Consider `O=c1[nH]cc(F)c(=O)[nH]1` [5-fluorouracil], for which the “chemosensitivity (cell viability) of A549 cells” value is “more sensitive to 5-fluorouracil and doxorubicin in 2D TCP than in 3D scaffolds”.
